We go through 15 compounds from article PMC11443480, “Natural Rubrolides and Their Synthetic Congeners as Inhibitors of the Photosynthetic Electron Transport Chain” (Journal of Natural Products, 2024).

Where “and” joins values, the source holds several entries; their conditions need not be identical. Equal values may be shown once. Entries after “also recorded” stand apart in the source; their conditions may differ. Some results are limits rather than exact numbers.

The test system of data set [1] is photosynthetic electron transport chain in isolated spinach thylakoids. Kind of data set: Hill reaction: light-dependent ferricyanide reduction in isolated spinach thylakoids (basal). In kind it is biochemical, spinach (Spinacea oleracea L.). The note with it: basal conditions, 0.05–100 μM tested, triplicate; for IC50: read-out: IC50, inhibition by 50% of the light-dependent ferricyanide reduction. As to the method: The ability of natural rubrolides and their synthetic analogues to interfere with the chloroplast electron transport chain was evaluated by measuring the Hill reaction in thylakoid membranes isolated from spinach leaves. The results were summarized as the concentrations able to inhibit by 50% the rate measured in untreated controls (IC50, Table 2).
Thylakoid membranes were isolated from spinach (Spinacea oleracea L.) leaves. Plant material was resuspended in 5 mL g^–1 of ice-cold 20 mM Tricine-NaOH buffer (pH 8.0) containing 10 mM NaCl, 5 mM MgCl2, and 0.4 M sucrose and homogenized for 30 s in a blender at maximal speed. The homogenate was filtered through surgical gauze, and the filtrate was centrifuged at 4 °C for 1 min at 500g; the supernatant was further centrifuged for 10 min at 1,500g. Pelleted chloroplasts were osmotically swollen by resuspension in a sucrose-lacking buffer. The suspension was immediately diluted 1:1 with sucrose-containing buffer, kept on ice in the dark, and used within a few hours from the preparation. Chlorophyll content was calculated after diluting with 80% (v/v) acetone on the basis of Arnon’s formula. The basal rate of photosynthetic electron transport was measured by following light-driven ferricyanide reduction. Membrane aliquots corresponding to 3 μg of chlorophyll were incubated at 24 °C in wells of 96-well-plates in a final volume of 200 μL in the presence of 20 mM Tricine-NaOH buffer (pH 8.0), 10 mM NaCl, 5 mM MgCl2, 0.2 M sucrose, and 2 mM K3Fe(CN)6. The assay was initiated by exposure to saturating light (600 μmol m^–2 s^–1), and the rate of ferricyanide reduction was measured at 30 s intervals for 10 min using a Ledetect 96 plate reader (Labexim, Lengau, Austria) equipped with a LED plugin at 420 nm. Activity was calculated over the linear portion of the curve from a molar extinction coefficient of 1,000 M^–1 cm^–1. Rubrolides were dissolved in DMSO to obtain 10 mM solutions, which were then diluted with H2O, as appropriate. Their effect upon the Hill reaction was evaluated in parallel assays in which the compounds were added to the reaction mixture to concentrations ranging from 0.05 to 100 μM. Each dose was carried out at least in triplicate, and results were expressed as percentage of untreated controls. Mean values ± SE over replicates are reported. The concentrations causing 50% inhibition (IC50) and their confidence limits were estimated by nonlinear regression analysis using Prism 6 for Windows, version 6.03 (GraphPad Software).

For the next data set, the system named is rapeseed. Details: method as in PMID 38695089. The conditions noted are these: cited from earlier work; for Inhibition of rapeseed growth: greenhouse treatments.
For data set [2], the system named is photosynthetic electron transport chain in isolated spinach chloroplast. Kind of data set: Ferricyanide reduction under uncoupling and phosphorylating conditions. The data set is classed as biochemical, spinach (Spinacea oleracea L.). The note with it: 10^–7 to 10^–5 M range. On the procedure:
Diuron was included as a positive control.
(§1) Phosphorylating electron flow was evaluated under the same conditions but in the presence of 0.5 mM ADP and 2 mM K2HPO4. Uncoupled activity was measured following the addition of 2 mM NH4Cl to the basal reaction mixture containing aliquots of membrane preparations corresponding to 1.5 μg of chlorophyll. To evaluate the effect on PSII only, uncoupled activity was blocked by the addition of the cytochrome b6f inhibitor 2,5-dibromo-6-isopropyl-3-methyl-1,4-benzoquinone (DBMIB) at […], and an electronic transfer from H2O to ferricyanide that excludes PSI (H2O → PSII → D1 protein → phenylendiamine → ferricyanide) was restored through the addition of 0.1 mM phenylenediamine. In this case, due to the lower reduction rate, aliquots of membrane preparations corresponding to 6 μg of chlorophyll were used.

Another data set addresses T1, PSII (Spinacia oleracea, UniProt P69560).
T1 construct: Thylakoid membranes were isolated from spinach (Spinacea oleracea L.) leaves; from tissue; host or cells: spinach leaves (thylakoid membranes)
Kind of data set: Partial electron flow involving PSII only (excluding PSI). The data set is classed as biochemical, spinach (Spinacea oleracea L.). The conditions noted are these: DBMIB-blocked, phenylenediamine-restored flow excluding PSI.
Text: An interference with the cytochrome b6f complex cannot be completely excluded, but this difference could simply rely on the experimental conditions employed. To evaluate the effect on PSII only, uncoupled activity is blocked by the addition of the cytochrome b6f inhibitor 2,5-dibromo-6-isopropyl-3-methyl-1,4-benzoquinone, and an electronic transfer from H2O to ferricyanide that excludes PSI is restored through addition of phenylenediamine. […] A similar effect was previously noticed also in the case of other inhibitors.[10b],[10e],[10j]
as §1

For the next data set, the system named is Raphanus sativus. Kind of data set: Growth of Raphanus sativus seedlings sown in the presence of the compound. The data set is classed as in vivo, Raphanus sativus cv Scarlet Champion. The note with it: 10 μM in agarized medium; growth measured at three-leaf stage, 3 weeks after sowing. On the procedure:
The ability of these compounds to interfere with plant growth was evaluated by measuring the growth of Raphanus sativus seedlings that had been sown in the presence of a given rubrolide. […] In that case, compound 5 was also found inhibitory, but at a 20-fold higher concentration (200 μM).
Figure 1 Effect of natural rubrolides 1–7 on the growth of the model plant Raphanus sativus. Seeds were sown in the presence of a given compound at a concentration of 10 μM. Controls received the same volume of DMSO (0.1%) used to dissolve the rubrolides. The commercial herbicide hexazinone was also included, as a positive control. Growth was measured when untreated plants reached the three-leaf stage, 3 weeks after sowing. Results were analyzed using Prism 6 for Windows by means of the Kolmogorov–Smirnov normality test (P = 0.05), and then subjected to 1-way ANOVA. […] Results were plotted as a box and whiskers plot showing 10–90th percentiles.
Seeds of Raphanus sativus cv Scarlet Champion were surface sterilized by treatment with ethanol for 4 min and with 3% NaClO containing 0.04% Triton X-100 for 8 min under vacuum. […] The fresh biomass of each seedling was measured at that point by a destructive harvest. […]

As usually defined, the IC50 is the concentration at which inhibition is half-maximal. For the compound `O=C1O/C(=C\c2cc(Br)c(O)c(Br)c2)C(c2cc(Br)c(O)c(Br)c2)=C1Cl` [Compound 1, rubrolide B], in data set [1], the IC50 worked out at 8.62 ± 1.89 µM.
`COc1ccc(C2=C(Cl)C(=O)O/C2=C\c2ccc(OC)c(Br)c2)cc1Cl` [Compound 19]: the “IC50, inhibition by 50% of the light-dependent ferricyanide reduction” value in data set [1] was “no activity and n.e”.
For the compound rubrolide C, the “Inhibition of rapeseed growth” value in the data set on rapeseed was “inhibit rapeseed growth”.
As for `COc1ccc(/C=C2\OC(=O)C(Cl)=C2c2ccccc2)cc1` [Compound 12], the half-inhibitory concentration (IC50) in data set [1] was 257 ± 273 µM.
One may read the melting point as the temperature of the solid-liquid transition. Regarding `O=C1O/C(=C\c2ccc(-c3ccccc3)s2)C(c2ccc(F)cc2)=C1Cl` [Compound 16], the melting point is 218.3 to 219.8 °C (dec.). In data set [1], the IC50 is 266 ± 272 µM.
The like results for `O=C1O/C(=C\c2ccc(F)cc2Cl)C(c2ccccc2)=C1Cl` [Compound 13] were, in that order, 145.3 to 147 °C and 35.9 ± 7.7 µM.
In the case of `COc1ccc(Cl)cc1C1=C(Cl)C(=O)O/C1=C\c1ccc2c(c1)OCO2` [Compound 15], the melting point was in the range of 134.9 to 136.2 °C.
Consider `O=C1O/C(=C\c2ccc(O)c(Br)c2)C(c2ccc(O)c(Br)c2)=C1Cl` [Compound 3, rubrolide K], for which, in data set [1], the IC50 came to 8 ± 2.05 µM.
Take `O=C1O/C(=C\c2ccc(O)c(Br)c2)C(c2ccc(O)c(Cl)c2)=C1Cl` [Compound 20, (Z)-5-(3-Bromo-4-hydroxybenzylidene)-3-chloro-4-(3-chloro-4-hydroxyphenyl)furan-2(5H)-one]: the melting point is 210 to 213 °C (dec.). Moreover, the “Effect on ferricyanide reduction under uncoupling and phosphorylating conditions” value in data set [2] is recorded as “progressive reduction of the activity”. Besides, the IC50 in data set [1] was found to be 4.97 ± 1.05 µM. Besides, on PSII, the “Effect on partial electron flow involving PSII only versus whole transport chain” value is reported as “able to inhibit the electron transfer from PSII to the cytochrome b6f complex”.
Regarding `O=C1C=C(c2ccc(O)cc2)/C(=C/c2ccc(O)cc2)O1` [Compound 5, rubrolide E], the “Inhibition of rapeseed growth at 200 μM” value in the data set with rapeseed (200 μM (20-fold higher concentration)) is “inhibitory”. Further, the “Inhibition of rapeseed growth” value in the data set on rapeseed is “inhibit rapeseed growth”. The “IC50, inhibition by 50% of the light-dependent ferricyanide reduction” value in data set [1] was “ineffective; also recorded: lack activity; also recorded: n.e. ^a”. For the same compound, the “Effect on growth of Raphanus sativus seedlings (phytotoxicity)” value in the data set with Raphanus sativus is recorded as “ineffective”.
With rubrolide I [Compound 2], the “Effect on ferricyanide reduction under uncoupling and phosphorylating conditions” value in data set [2] is recorded as “progressive reduction of the activity”. The IC50 in data set [1] is 5.54 ± 0.98 µM. Moreover, on PSII, the “Effect on partial electron flow involving PSII only versus whole transport chain” value is reported as “able to inhibit the electron transfer from PSII to the cytochrome b6f complex”.
Taken in the same sequence, the figures for `O=C1O/C(=C\c2ccc(O)c(Br)c2)C(c2cc(Br)c(O)c(Br)c2)=C1Cl` [Compound 4, rubrolide O] were “progressive reduction of the activity”, 4.37 ± 0.8 µM and “able to inhibit the electron transfer from PSII to the cytochrome b6f complex”.
Consider `CN(C)C(=O)Nc1ccc(Cl)c(Cl)c1` [Diuron, reference compound], for which the IC50 in data set [1] came out at 0.27 ± 0.01 µM. Further, on PSII, the “Effect on partial electron flow involving PSII only versus whole transport chain” value was “very similar effectiveness”.
The compound `O=C1O/C(=C\c2ccnc(Br)c2)C(c2ccc(F)cc2)=C1Cl` [Compound 17] showed a melting point of 150.3 to 152.8 °C. Moreover, in data set [1], the “IC50, inhibition by 50% of the light-dependent ferricyanide reduction” value is recorded as “n.e. ^a”.
`COc1ccc(/C=C2\OC(=O)C=C2c2ccc(O)cc2)cc1` [Compound 6, rubrolide F]: the “Inhibition of rapeseed growth” value with rapeseed is “inhibit rapeseed growth”. In data set [1], the IC50 is > 25 µM and 29.3 µM.
